For one assay, the system named is VCaP cells. Description: Cellular growth inhibition assay for VCaP cells, CellTiter-Glo. Type of assay: cell-based, human. As to conditions: 72 hours treatment, CellTiter-Glo 2.0. The procedure: VCaP cells were purchased from American Type Cell Culture (ATCC Cat #CRL2876) and then seeded on poly-D-lysine coated, black clear-bottom 384-well plates at 5000/well in 25 μL Dulbecco's Modified Eagle Medium (DMEM) supplemented with 10% w/w Fetal bovine serum (FBS) and 1% w/w Pen-Strep. Pen-Strep is a commercially available mixture of penicillin G and streptomycin, which is used in mammalian cell culture media to prevent bacterial contamination. Dulbecco's Modified Eagle Medium (DMEM) supplemented with 10% w/w fetal bovine serum (FBS) and 1% w/w Pen-Strep is herein referred to as Treatment Medium. Following seeding of cells in the plates, the plates were spun at 300×g for 30 seconds, then equilibrated to room temperature for 30 minutes, and then deposited in a humidified tissue culture incubator maintained at 37° C. with 5% CO2.
(§1) At 24 hours after seeding of the cells, dilutions of test compound were prepared in DMSO and dissolved in Treatment Medium, to achieve a final DMSO concentration of 0.5% w/w, thereby providing the Test Compound Solution. A 25 μL aliquot of the Test Compound Solution was added to cells in the well plates. An equal volume of a solution containing DMSO and Treatment Medium was used as a negative control. Following treatment of cells with Test Compound Solution or said equal volume of a solution containing DMSO and Treatment Medium, the plates were spun at 300×g for 30 seconds, and then left in an incubator for 72 hours.
(§2) At the end of the treatment duration, cell viability was quantified with CellTiter-Glo 2.0 reagent (Promega Cat #G9243). For this purpose, plates were equilibrated to room temperature for 30 minutes, and then 25 μL of CellTiter-Glo 2.0 reagent was added to cells in the plate wells. Plates were then agitated on a shaker for two minutes at 500 rpm and subsequently incubated at room temperature for 10 minutes. Following incubation, the plates were spun at 3000×g for 30 seconds, then sealed with an optical adhesive cover, and luminescence readings were measured with an EnVision Plate Reader.
(§3) Data was normalized using zero luminescence for baseline. A four-parameter non-linear regression curve fit was applied to dose-response data in GraphPad Prism data analysis software to determine the half-maximal growth inhibitory concentration (GI50) for each test compound.
Background: In ATP-based viability assays light output follows the ATP content of the culture.

A further assay concerns T47D cells. The experiment in a line: Cellular growth inhibition assay for T47D cells, CellTiter-Glo. Type of assay: cell-based, human. To be noted: 72 hours treatment, CellTiter-Glo 2.0 cell viability. The procedure:
T47D cells were purchased from American Type Cell Culture (ATCC Cat #HTB-133) and then seeded on poly-D-lysine coated, black clear-bottom 384-well plates at 3000/well in 25 μL Dulbecco's Modified Eagle Medium (DMEM) supplemented with 10% w/w Fetal bovine serum (FBS), 0.2 units/mL recombinant human insulin (Gibco Cat #12585014), and 1% w/w Pen-Strep. Pen-Strep is a commercially available mixture of penicillin G and streptomycin, which is used in mammalian cell culture media to prevent bacterial contamination. Dulbecco's Modified Eagle Medium (DMEM) supplemented with 10% w/w fetal bovine serum (FBS), 0.2 units/mL recombinant human insulin, and 1% w/w Pen-Strep is herein referred to as Treatment Medium. Following seeding of cells in the plates, the plates were spun at 300×g for 30 seconds, then equilibrated to room temperature for 30 minutes, and then deposited in a humidified tissue culture incubator maintained at 37° C. with 5% CO2.
as §1
as §2, with “Reader (Perkin Elmer).” for “Reader.”
as §3

A word on the GI50: it is the concentration giving 50% growth inhibition. Regarding `Cc1sc2c(c1C)C(c1ccc(C[C@H]3CC[C@@H]4CN(c5ncc(C(=O)N[C@H]6C(C)(C)[C@H](Oc7ccc(C#N)c(Cl)c7)C6(C)C)cn5)CCN4C3)cc1)=N[C@@H](Cc1ncco1)c1nnc(C)n1-2` [Compound I-304], the concentration for 50% growth inhibition (GI50) with VCaP cells (Homo sapiens, VCaP, 72 h) is under 500 nM; in the assay with T47D cells (Homo sapiens, T47D, 72 h) it was over 3000 nM.

For the molecule `Cc1sc2c(c1C)C(c1ccc(C[C@@H]3CC[C@@H]4CN(c5ncc(C(=O)N[C@H]6C(C)(C)[C@H](Oc7ccc(C#N)c(Cl)c7)C6(C)C)cn5)CCN4C3)cc1)=C[C@@H](Cc1ncco1)c1nnc(C)n1-2` [Compound I-305], the GI50 was over 3000 nM in the assay with VCaP cells (Homo sapiens, VCaP, 72 h) and 500 to 1500 nM in the assay on T47D cells (Homo sapiens, T47D, 72 h). The corresponding values for `Cc1sc2c(c1C)C(c1ccc(C[C@@H]3CC[C@@H]4CN(c5ncc(C(=O)N[C@H]6C(C)(C)[C@H](Oc7ccc(C#N)c(Cl)c7)C6(C)C)cn5)CCN4C3)cc1)=N[C@H](Cc1ncco1)c1nnc(C)n1-2` [Compound I-307] are under 500 nM and under 500 nM. The corresponding values for `Cc1sc2c(c1C)C(c1ccc(C[C@@H]3CC[C@]4(C3)CN(c3ncc(C(=O)N[C@H]5C(C)(C)[C@H](Oc6ccc(C#N)c(Cl)c6)C5(C)C)cn3)CCO4)cc1)=N[C@@H](Cc1ncco1)c1nnc(C)n1-2` [Compound I-308] are over 3000 nM and over 3000 nM. The corresponding values for `Cc1sc2c(c1C)C(c1ccc(C[C@@H]3CC[C@@]4(C3)CN(c3ncc(C(=O)N[C@H]5C(C)(C)[C@H](Oc6ccc(C#N)c(Cl)c6)C5(C)C)cn3)CCO4)cc1)=N[C@@H](Cc1ncco1)c1nnc(C)n1-2` [Compound I-309] are over 3000 nM and over 3000 nM. In the case of `Cc1sc2c(c1C)C(c1ccc(C[C@H]3CC[C@]4(C3)CN(c3ncc(C(=O)N[C@H]5C(C)(C)[C@H](Oc6ccc(C#N)c(Cl)c6)C5(C)C)cn3)CCO4)cc1)=N[C@@H](Cc1ncco1)c1nnc(C)n1-2` [Compound I-310], the GI50 is under 500 nM in the assay with VCaP cells (Homo sapiens, VCaP, 72 h) and under 500 nM in the assay on T47D cells (Homo sapiens, T47D, 72 h). With `Cc1sc2c(c1C)C(c1ccc(OC3CCN(C4CCN(c5ncc(C(=O)N[C@H]6C(C)(C)[C@H](Oc7ccc(C#N)c(Cl)c7)C6(C)C)cn5)CC4)CC3)cc1)=N[C@@H](Cc1ncco1)c1nnc(C)n1-2` [Compound I-313], the concentration for 50% growth inhibition (GI50) in the assay with VCaP cells (Homo sapiens, VCaP, 72 h) was under 500 nM; in the assay on T47D cells (Homo sapiens, T47D, 72 h) it was under 500 nM.

For the molecule `Cc1sc2c(c1C)C(c1ccc(N3CCC[C@H](C(=O)N4CCCC4c4ncc(C(=O)N[C@H]5C(C)(C)[C@H](Oc6ccc(C#N)c(Cl)c6)C5(C)C)cn4)C3)cc1)=N[C@H](Cc1ncco1)c1nnc(C)n1-2` (stereo partly shown) [Compound I-315], the 50% growth inhibitory concentration (GI50) in the assay with VCaP cells (Homo sapiens, VCaP, 72 h) is over 3000 nM; with T47D cells (Homo sapiens, T47D, 72 h) it was over 3000 nM. As for `Cc1sc2c(c1C)C(c1ccc(CNC(=O)Cc3ncc(C(=O)N[C@H]4C(C)(C)[C@H](Oc5ccc(C#N)c(Cl)c5)C4(C)C)cn3)cc1)=N[C@@H](Cc1ncco1)c1nnc(C)n1-2` [Compound I-316], the GI50 was under 500 nM in the assay on VCaP cells (Homo sapiens, VCaP, 72 h) and 500 to 1500 nM with T47D cells (Homo sapiens, T47D, 72 h). For `Cc1sc2c(c1C)C(c1ccc(C(=O)N3CCC[C@@H](Cc4ncc(C(=O)N[C@H]5C(C)(C)[C@H](Oc6ccc(C#N)c(Cl)c6)C5(C)C)cn4)C3)cc1)=N[C@@H](Cc1ncco1)c1nnc(C)n1-2` [Compound I-318] the same measures were over 3000 nM and over 3000 nM. For `Cc1sc2c(c1C)C(c1ccc(C(=O)N3CCC[C@@H](Cc4ncc(C(=O)N[C@H]5C(C)(C)[C@H](Oc6ccc(C#N)c(Cl)c6)C5(C)C)cn4)C3)cc1)=N[C@@H](Cc1ncco1)c1nnc(C)n1-2` [Compound I-319], the 50% growth inhibitory concentration (GI50) is 1500 to 3000 nM in the assay on VCaP cells and over 3000 nM with T47D cells. Turning to `Cc1sc2c(c1C)C(c1ccc(N3CC(C4CCN(c5cnc(C(=O)N[C@H]6C(C)(C)[C@H](Oc7ccc(C#N)c(Cl)c7)C6(C)C)cn5)CC4)C3)cc1)=N[C@@H](Cc1ncco1)c1nnc(C)n1-2` [Compound I-558], the GI50 in the assay with T47D cells (Homo sapiens, T47D, 72 h) was under 500 nM. For the molecule `Cc1sc2c(c1C)C(c1ccc(C#CC3CC(Cc4ncc(C(=O)N[C@H]5C(C)(C)[C@H](Oc6ccc(C#N)c(Cl)c6)C5(C)C)cn4)C3)cc1)=NC(Cc1ncco1)c1nnc(C)n1-2` (stereo partly shown) [Compound I-559], in the assay on T47D cells, the GI50 fell in the range of 500 to 1500 nM.

In the assay on T47D cells (Homo sapiens, T47D, 72 h), `Cc1sc2c(c1C)C(c1ccc(C#CC3CC(Cc4ncc(C(=O)N[C@H]5C(C)(C)[C@H](Oc6ccc(C#N)c(Cl)c6)C5(C)C)cn4)C3)cc1)=NC(Cc1ncco1)c1nnc(C)n1-2` (stereo partly shown) [Compound I-560] had a concentration for 50% growth inhibition (GI50) of 500 to 1500 nM. As to `Cc1sc2c(c1C)C(c1ccc(C#CC3CC(Cc4ncc(C(=O)N[C@H]5C(C)(C)[C@H](Oc6ccc(C#N)c(Cl)c6)C5(C)C)cn4)C3)cc1)=NC(Cc1ncco1)c1nnc(C)n1-2` (stereo partly shown) [Compound I-561], in the assay with T47D cells, the GI50 was under 500 nM. On to `Cc1sc2c(c1C)C(c1ccc(N3CC(CC4CN(c5ncc(C(=O)N[C@H]6C(C)(C)[C@H](Oc7ccc(C#N)c(Cl)c7)C6(C)C)cn5)C4)C3)cc1)=N[C@@H](Cc1ncco1)c1nnc(C)n1-2` [Compound I-562], for which the GI50 with T47D cells (Homo sapiens, T47D, 72 h) was under 500 nM. In the case of `Cc1sc2c(c1C)C(c1ccc(N3CC(CC4CN(c5cnc(C(=O)N[C@H]6C(C)(C)[C@H](Oc7ccc(C#N)c(Cl)c7)C6(C)C)cn5)C4)C3)cc1)=N[C@@H](Cc1ncco1)c1nnc(C)n1-2` [Compound I-563], the GI50 in the assay with T47D cells (Homo sapiens, T47D, 72 h) was under 500 nM.

In the assay on T47D cells (Homo sapiens, T47D, 72 h), `Cc1sc2c(c1C)C(c1ccc(N3CC(C4CCN(c5ccc(C(=O)N[C@H]6C(C)(C)[C@H](Oc7ccc(C#N)c(Cl)c7)C6(C)C)nc5)CC4)C3)cc1)=N[C@@H](Cc1ncco1)c1nnc(C)n1-2` [Compound I-564] showed a concentration for 50% growth inhibition (GI50) of under 500 nM. On the same count and under the same terms, as for `Cc1sc2c(c1C)C(c1ccc(N3CC(CC4CCN(c5ncc(C(=O)N[C@H]6C(C)(C)[C@H](Oc7ccc(C#N)c(Cl)c7)C6(C)C)cn5)CC4)C3)cc1)=N[C@@H](Cc1ncco1)c1nnc(C)n1-2` [Compound I-574], the figure is under 500 nM.

With `Cc1sc2c(c1C)C(c1ccc(N3CC(CC4CCN(c5cnc(C(=O)N[C@H]6C(C)(C)[C@H](Oc7ccc(C#N)c(Cl)c7)C6(C)C)cn5)CC4)C3)cc1)=N[C@@H](Cc1ncco1)c1nnc(C)n1-2` [Compound I-575], in the assay with T47D cells (Homo sapiens, T47D, 72 h), the GI50 is under 500 nM. For `Cc1sc2c(c1C)C(c1ccc(N3CC(C4CCCC(Cc5ncc(C(=O)N[C@H]6C(C)(C)[C@H](Oc7ccc(C#N)c(Cl)c7)C6(C)C)cn5)C4)C3)cc1)=N[C@@H](Cc1ncco1)c1nnc(C)n1-2` (stereo partly shown) [Compound I-579], the GI50 in the assay on T47D cells (Homo sapiens, T47D, 72 h) is under 500 nM. Turning to `Cc1sc2c(c1C)C(c1ccc(N3CC(C4CCCC(Cc5ncc(C(=O)N[C@H]6C(C)(C)[C@H](Oc7ccc(C#N)c(Cl)c7)C6(C)C)cn5)C4)C3)cc1)=N[C@@H](Cc1ncco1)c1nnc(C)n1-2` (stereo partly shown) [Compound I-580], the GI50 in the assay on T47D cells was under 500 nM. In the assay with T47D cells, `Cc1sc2c(c1C)C(c1ccc(N3CC(C4CCCC(Cc5ncc(C(=O)N[C@H]6C(C)(C)[C@H](Oc7ccc(C#N)c(Cl)c7)C6(C)C)cn5)C4)C3)cc1)=N[C@@H](Cc1ncco1)c1nnc(C)n1-2` (stereo partly shown) [Compound I-581] displayed a GI50 of under 500 nM. Same read-out and setting: then `Cc1sc2c(c1C)C(c1ccc(N3CC(C4CCCC(Cc5ncc(C(=O)N[C@H]6C(C)(C)[C@H](Oc7ccc(C#N)c(Cl)c7)C6(C)C)cn5)C4)C3)cc1)=N[C@@H](Cc1ncco1)c1nnc(C)n1-2` (stereo partly shown) [Compound I-582], with under 500 nM.

The molecule `Cc1sc2c(c1C)C(c1ccc(OC[C@@H]3CCCN(c4cnc(C(=O)N[C@H]5C(C)(C)[C@H](Oc6ccc(C#N)c(Cl)c6)C5(C)C)cn4)C3)cc1)=N[C@@H](Cc1ncco1)c1nnc(C)n1-2` [Compound I-591] returned a GI50 in the assay with T47D cells (Homo sapiens, T47D, 72 h) of under 500 nM. Same read-out and setting: then `Cc1sc2c(c1C)C(c1ccc(OC3CC4(C3)CC3(CCN(c5ncc(C(=O)N(C)[C@H]6C(C)(C)[C@H](Oc7ccc(C#N)c(Cl)c7)C6(C)C)cn5)CC3)C4)cc1)=N[C@@H](Cc1ncco1)c1nnc(C)n1-2` [Compound I-592], with under 500 nM.
